Experimental data taken from US20050182252A1, “Novel 2'-C-methyl nucleoside derivatives” (priority 2004, published 2005).

C[C@@]1(O)[C@H](O)[C@@H](COP2(=O)OCC[C@@H](c3ccc(F)c(Br)c3)O2)O[C@H]1n1ccc2c(=O)[nH]c(N)nc21 (stereo partly drawn) [Compound 17.15, 2-amino-7-(cis-5′-O-[4-(3-bromo-4-fluoro-phenyl)-2-oxo-1,3,2-dioxaphosphorinan-2-yl]-2′-C methyl-beta-D-ribofuranosyl)-7H-pyrrolo[2,3-d]pyrimidin-4(3H)-one] gave a melting point of 175 to 179 °C. C[C@@]1(O)[C@H](O)[C@@H](CO[P@]2(=O)OCC[C@H](c3ccccc3)O2)O[C@H]1n1ccc2c(=O)[nH]c(N)nc21 [Compound 17.16, 2-amino-7-(cis-5-O-[4-(R)-phenyl-2-oxo-1,3,2-dioxaphosphorinan-2-yl]-2-C methyl-beta-D-ribofuranosyl)-7H-pyrrolo[2,3-d]pyrimidin-4(3H)-one] showed a melting point of 128 to 133 °C. For CO[C@@H]1COP(=O)(OC[C@H]2O[C@@H](n3ccc4c(=O)[nH]c(N)nc43)[C@](C)(O)[C@@H]2O)O[C@@H]1c1cccc(Cl)c1 (stereo partly drawn) [Compound 17.19], the melting point was 148 to 151 °C. With C[C@@]1(O)[C@H](O)[C@@H](COP2(=O)OCC[C@H](c3ccccc3Br)O2)O[C@H]1n1ccc2c(=O)[nH]c(N)nc21 (stereo partly drawn) [Compound 17.21, 2-amino-7-(cis-5′-O-[4-(2-bromophenyl)-2-oxo-1,3,2-dioxaphosphorinan-2-yl]-2′-C methyl-beta-D-ribofuranosyl)-7H-pyrrolo[2,3-d]pyrimidin-4(3H)-one] the melting point was 180 °C. Work on C[C@@]1(O)[C@H](O)[C@@H](COP2(=O)OCC[C@H](c3cc(C(F)(F)F)cc(C(F)(F)F)c3)O2)O[C@H]1n1ccc2c(=O)[nH]c(N)nc21 (stereo partly drawn) [Compound 17.23] yielded a melting point of 155 to 175 °C. In the case of C[C@@]1(O)[C@H](O)[C@@H](COP2(=O)OCC[C@H](c3cccc(C(F)(F)F)c3)O2)O[C@H]1n1ccc2c(=O)[nH]c(N)nc21 (stereo partly drawn) [Compound 17.24], the melting point is reported as 145 to 165 °C. For C[C@@]1(O)[C@H](O)[C@@H](COP2(=O)OCC[C@H](c3ccc(Cl)cc3Cl)O2)O[C@H]1n1ccc2c(=O)[nH]c(N)nc21 (stereo partly drawn) [Compound 17.25, 2-amino-7-(cis-5-O-[4-(2,4-dichlorophenyl)-2-oxo-1,3,2-dioxaphosphorinan-2-yl]-2-C methyl-beta-D-ribofuranosyl)-7H-pyrrolo[2,3-d]pyrimidin-4(3H)-one], the melting point was 175 °C. C[C@@]1(O)[C@H](O)[C@@H](COP2(=O)OCCC(c3cccc(Cl)c3)O2)O[C@H]1n1cnc2c(N)ncnc21 (stereo partly drawn) [Compound 18, 5′-O-[4-(3-chlorophenyl)-2-oxo-1,3,2-dioxaphosphorinan-2-yl]-2′-C-methyladenosine] gave a melting point of 153 °C. Work on C[C@@]1(O)[C@H](O)[C@@H](COP2(=O)OCC[C@@H](c3cccc(C#N)c3)O2)O[C@H]1n1cnc2c(N)ncnc21 (stereo partly drawn) [Compound 21.2, cis-5′-O-[4-(3-cyanophenyl)-2-oxo-1,3,2-dioxaphosphorinan-2-yl]-2′-C-beta-methyl-adenosine] yielded a melting point of 153 to 156 °C. With C[C@@]1(O)[C@H](O)[C@@H](COP2(=O)OCC[C@@H](c3cc(F)ccc3F)O2)O[C@H]1n1cnc2c(N)ncnc21 (stereo partly drawn) [Compound 21.3, cis-5′-O-[4-(2,5difluorophenyl)-2-oxo-1,3,2-dioxaphosphorinan-2-yl]-2′-C-beta-methyl-adenosine] the melting point was 75 to 78 °C. In the case of C[C@@]1(O)[C@H](O)[C@@H](COP2(=O)OCC[C@@H](c3cc(F)cc(F)c3)O2)O[C@H]1n1cnc2c(N)ncnc21 (stereo partly drawn) [Compound 21.4, cis-5′-O-[4-(3,5-difluorophenyl)-2-oxo-1,3,2-dioxaphosphorinan-2-yl]-2′-C-beta-methyl-adenosine], the melting point is reported as 120 to 123 °C. Compound C[C@@]1(O)[C@H](O)[C@@H](COP2(=O)OCC[C@@H](c3cccc(Br)c3)O2)O[C@H]1n1cnc2c(N)ncnc21 (stereo partly drawn) [Compound 21.6, cis-5′-O-[4-(3-bromophenyl)-2-oxo-1,3,2-dioxaphosphorinan-2-yl]-2′-C-beta-methyl adenosine] has a melting point of 108 to 110 °C.
